How the values were obtained:
LPS-induced ALI mice = test: LPS-induced ALI model: albumin in BALF; format: in vivo, Balb/c mice; settings: CT-NA 10 mg/kg (P<0.05) and 30 mg/kg (P<0.01), Dex 1 mg/kg (P<0.01); 24 hrs after LPS
Method: Evans Blue was a dye that could quickly bind to albumin and was remains restricted within blood vessels because the endothelium was impermeable to albumin under normal physiological conditions. Pulmonary microvascular permeability was assessed by measuring the extravasation of Evans blue dye in the lungs. The method was briefly described as follows. The mice were randomly divided into control group (12 mice) and LPS group (48 mice). The LPS group (48 mice) was further divided into four subgroups (each subgroup contains 12 mice). To measure pulmonary microvascular permeability, the unanaesthetized mice of LPS group received intragastric instillation of NS, CT-NA at 10 mg/kg or 30 mg/kg, or Dex at 1 mg/kg respectively. One hour later, the anaesthetized mice were intratracheally instilled with NS (control group) and LPS (all LPS subgroups) at 10 μl/10 g of body weight. […] And then the absorbance of the Evans blue dye extracted in the supernatant was measured against formamide blank at 620 nm via standard curve method, and expressed as microgram of dye per 100 mg of wet lung weight. In addition, the concentration of albumin in BALF was measured at 628 nm using a spectrophotometer and an albumin measurement kit. The albumin concentration ratio assessed from BALF represented not only the albumin level but also the permeability of the pulmonary microvascular.

[1] = system: isolated peritoneal macrophages; test: RT-PCR analysis, LPS- or PGD2-stimulated peritoneal macrophages; format: cell-based, mice; settings: CT-NA 10 and 100 μM, P<0.05 or P<0.01
Method: The method was briefly described as follows. Thioglycolate (4%) was intraperitoneally injected to mice at a dose of 20 ml/kg of body weight for three consecutive days. 48 h after the last thioglycolate injection (on day 5), the peritoneal macrophages were isolated from the peritoneal lavage of the euthanized mice. The isolated peritoneal macrophages were added to a 12-well plate (4×10^5/well) and cultured at 37° C. Non-adherent cells were removed by gently washing three times with warm PBS. At this time, more than 90% of the cells were macrophages, which were cultured in DMEM/high glucose medium containing penicillin (100 U/ml), streptomycin (100 μg/ml) and 10% FBS at 37° C. After acclimation, serum-free DMEM/high glucose was added to a 12-well plate for 10-12 hrs, and then treated with different concentrations of LPS ([…]) for 24 hrs. Afterward, the supernatant of the peritoneal macrophages was collected to measure the protein level of PGD2 using ELISA kits according to the method of the instructions.
For ELISA and RT-PCR, RAW 264.7 macrophages were acclimated to two 12-well plates at 70-80% confluence. Thereafter, the medium in the 12-well plate was replaced with serum-free RPMI-1640 medium for 10-12 hrs and then exposed to CT-NA (10 and 100 μM) for 1 hour. […]

## CN([C@@H]1CCc2c(CC(=O)[O-])c3cccnc3n2C1)S(=O)(=O)c1ccc(F)cc1.[Na+] [Sodium salt hydrate]
LPS-induced ALI mice
  albumin content in BALF: considerably reduced
[1]; LPS, dose-dependent
  mRNA expressions of IL-1β, TNF-α, IL-6 and KC, LPS-stimulated: reduced
[1]; PGD2, dose-dependent
  mRNA expressions of IL-1β, TNF-α, IL-6 and KC, PGD2-stimulated: reduced

Source: patent US20220098197A1, “SALTS OF HETEROCYCLIC COMPOUND AND USE THEREOF” (priority 2019, published 2022)
